Test results from patent publication US20250295724A1, “COMPOSITION OF MALUS NIEDZWETZKYANA DIECK AND PRUNUS CERASIFERA EHRHART AND USE THEREOF IN TERMS OF RESISTING ATHEROSCLEROSIS” (priority 2023, published 2025).
Marks after values point to notes of the source that are not given here.

Experiments:
[1] = test system: high-fat diet induced ApoE-/-mice atherosclerosis model (aortic atherosclerotic plaque); assay: Treatment of atherosclerosis: aortic plaque area in high-fat diet induced ApoE-/- mice, samples given for 4 weeks after 17 weeks of modeling; type: in vivo
From the text: (§1) Wild type C57 mice were used as a normal control group, rosuvastatin was used as a positive drug, and the efficacy (i.e., treating effect) of the composition samples in resisting atherosclerosis was investigated in a high-fat diet induced ApoE-/-mice atherosclerosis model. An atherosclerosis model was established after 17 weeks of modeling, and a control group was fed with a common feed for 17 weeks. The sample administration group was continuously administered with the test samples for 4 weeks after 17 weeks of modeling, and thereafter the formation of aortic atherosclerotic plaque in the mice was observed, and the plaque area was measured after dissection to calculate the plaque percentage.
(§2) Wild type C57 mice were used as a normal control group, rosuvastatin and atorvastatin were used as positive drugs, and the efficacy (i.e., treating effect) of the composition mixed samples in resisting atherosclerosis was investigated in a high-fat diet induced ApoE-/-mice atherosclerosis model. An atherosclerosis model was established after 17 weeks of modeling, and a control group was fed with a common feed for 17 weeks. The sample administration group was continuously administered with the test samples for 4 weeks after 17 weeks of modeling, and thereafter the formation of aortic atherosclerotic plaque in the mice was observed, and the plaque area was measured after dissection to calculate the plaque percentage.
as §2, with “aspirin, clopidogrel, colchicine” for “rosuvastatin”, “probucol” for “atorvastatin”
as §1, with “the” for “the composition”
as §1, with “mice were dissected,” for “plaque area was measured after dissection”, “area (percentage).” for “percentage.”

[2] = test system: high-fat diet induced ApoE-/-mice atherosclerosis model (aortic atherosclerotic plaque); assay: Prevention of atherosclerosis: aortic plaque area in high-fat diet induced ApoE-/- mice, samples given during 12 weeks of modeling; type: in vivo; conditions: dose 1.67 mg/kg
From the text: An atherosclerosis model (namely, model group) was established after 12 weeks of modeling, and a control group (namely normal group) was fed with a common feed for 12 weeks. […] An atherosclerosis model (namely, model group) was established after 12 weeks of modeling, and a control group (namely normal group) was fed with a common feed for 12 weeks.

[3] = Table 6, treatment, drug alone 16.7 mg/kg
[4] = Table 5, treatment, drug alone 1.67 mg/kg
[5] = Table 5, treatment, drug alone 3.33 mg/kg
[6] = Table 6, treatment, drug alone 12.5 mg/kg
[7] = Table 6, treatment, drug alone 0.167 mg/kg
[8] = Table 6, treatment, drug alone 83.5 mg/kg
[9] = Table 2, treatment, 4 weeks, dose 1.67 mg/kg
[10] = Table 4, treatment, 4 weeks, dose 1.67 mg/kg
[11] = Table 5, treatment, drug alone 0.83 mg/kg
[12] = Table 7, treatment, dose 1.67 mg/kg
[13] = Table 8, treatment, dose 1.67 mg/kg
[14] = Table 9, treatment, dose 1.67 mg/kg

For `CC(=O)Oc1ccccc1C(=O)O` [aspirin], the “Inhibition rate compared to the model %” value [1, 3] was 33.74% and the Plaque area % [1, 3] was 29.91%*.

With `CC(C)c1c(C(=O)Nc2ccccc2)c(-c2ccccc2)c(-c2ccc(F)cc2)n1CC[C@@H](O)C[C@@H](O)CC(=O)O` [atorvastatin] the “Inhibition rate compared to the model %” value [1, 4] was 18.76%, the Plaque area % [1, 4] was 32.99%* and the “Inhibition rate compared to the model %” value [1, 5] was 28.47%. The Plaque area % [1, 5] was 29.05%*.

In the case of `COC(=O)[C@H](c1ccccc1Cl)N1CCc2sccc2C1` [clopidogrel], the “Inhibition rate compared to the model %” value [1, 6] is reported as 32.76% and the Plaque area % [1, 6] is reported as 30.35%*.

In the case of `COc1cc2c(c(OC)c1OC)-c1ccc(OC)c(=O)cc1[C@@H](NC(C)=O)CC2` [colchicine], the “Inhibition rate compared to the model %” value [1, 7] is reported as 25.12% and the Plaque area % [1, 7] is reported as 33.80%*.

With `CC(C)(Sc1cc(C(C)(C)C)c(O)c(C(C)(C)C)c1)Sc1cc(C(C)(C)C)c(O)c(C(C)(C)C)c1` [probucol] the “Inhibition rate compared to the model %” value [1, 8] was 21.91% and the Plaque area % [1, 8] was 35.25%*.

For `CC(C)c1nc(N(C)S(C)(=O)=O)nc(-c2ccc(F)cc2)c1/C=C/[C@@H](O)C[C@@H](O)CC(=O)O` [rosuvastain, rosuvastatin], the “Inhibition rate compared to the model %” value ([2]; Table 1, prevention) was 36.61%, the Plaque area % ([2]; Table 1, prevention) was 20.93%** and the “Inhibition rate compared to the model %” value ([2]; Table 3, prevention) was 30.61%. The Plaque area % ([2]; Table 3, prevention) was 24.82%, the “Inhibition rate compared to the model %” value [1, 9] was 38.69% and the Plaque area % [1, 9] was 26.10%*. The “Inhibition rate compared to the model %” value [1, 10] was 34.77%, the Plaque area % [1, 10] was 25.87%** and the “Inhibition rate compared to the model %” value [1, 11] was 16.97%. For the same compound, the Plaque area % [1, 11] was 33.72%*, the “Inhibition rate compared to the model %” value [1, 4] was 31.40% and the Plaque area % [1, 4] was 27.86%*. The “Inhibition rate compared to the model %” value [1, 12] was 34.77%, the Plaque area % [1, 12] was 25.87%** and the “Inhibition rate compared to the model %” value [1, 13] was 38.69%. The Plaque area % [1, 13] was 26.10%*, the “Inhibition rate compared to the model %” value [1, 14] was 42.69% and the Plaque area % [1, 14] was 27.94%**.
